Reference: patent US8765166B2, “Drug delivery devices for delivery of ocular therapeutic agents” (Aerie Pharmaceuticals, Inc., priority 2010, dated 2014)
In brackets after ≈: the same amount, converted by molar mass. Structures can show the parent of a compound that is named as a salt.

What was measured:
[1] = physchem; conditions: for solubility: aqueous buffer
Source text: The active agent may be any active agent suitable to treat the desired condition. […] Examples include, but are not limited to, acetazolamide, dorzolamide HCl, timolol maleate, and ethacrynic acid sodium salt.

[2] = topical ocular use; cited from earlier work

solubility class [1] | solubility [1] [µg/mL] | Compound | other results
high solubility | > 1000 | CCN[C@H]1C[C@H](C)S(=O)(=O)c2sc(S(N)(=O)=O)cc21 [dorzolamide HCl] | –
– | > 1000 | CC(=O)Nc1nnc(S(N)(=O)=O)s1 [acetazolamide] | –
low solubility | – | CCNC(=O)CCC/C=C\C[C@@H]1[C@@H](/C=C/[C@@H](O)CCc2ccccc2)[C@H](O)C[C@@H]1O [bimatoprost] | –
– | – | brimonidine tartrate | solubility class ([1]; PBS at pH=7.2-7.4, listed as brimonidine D-tartrate salt): high solubility; solubility in water ([1]; in water at pH 7.7): 0.6 mg/mL
low solubility | < 300 | CC(C)OC(=O)CCC/C=C\C[C@@H]1[C@@H](/C=C/[C@@H](O)COc2cccc(C(F)(F)F)c2)[C@H](O)C[C@@H]1O [travoprost isopropyl ester] | –
low solubility | < 300 | CC(C)OC(=O)CCC/C=C\C[C@@H]1[C@@H](CC[C@@H](O)CCc2ccccc2)[C@H](O)C[C@@H]1O [latanoprost isopropyl ester] | topical effective concentration [2]: 0.05 milligrams/mL
– | < 300 | CC[C@H](C)C(=O)O[C@H]1C[C@@H](C)C=C2C=C[C@H](C)[C@H](CC[C@@H]3C[C@@H](O)CC(=O)O3)[C@H]21 [lovastatin] | –
low solubility | < 300 | C[C@@H]1C[C@H]2[C@@H]3CCC4=CC(=O)C=C[C@]4(C)[C@@]3(F)[C@@H](O)C[C@]2(C)[C@@]1(O)C(=O)CO [dexamethasone] | –
high solubility | – | C[C@@H]1C[C@H]2[C@@H]3CCC4=CC(=O)C=C[C@]4(C)[C@@]3(F)[C@@H](O)C[C@]2(C)[C@@]1(O)C(=O)COP(=O)(O)O [dexamethasone sodium phosphate] | –
– | – | O=C(O)CCC/C=C\C[C@@H]1[C@@H](CC[C@@H](O)CCc2ccccc2)[C@H](O)C[C@@H]1O [latanoprost free acid] | solubility in PBS [1]: 0.8 mg/mL (≈ 2050 µM)
high solubility | > 1000 | C=C(CC)C(=O)c1ccc(OCC(=O)O)c(Cl)c1Cl [ethacrynic acid sodium salt] | –
moderate solubility | – | O=C(O)CCCCCC[C@@H]1[C@@H](CC[C@@H](O)c2cc3ccccc3s2)[C@H](O)C[C@@H]1O [AR-102 free acid, 7-((1R,2R,3R,5S)-2-((R)-3-(benzo[b]thiophen-2-yl)-3-hydroxypropyl)-3,5-dihydroxycyclopentyl)heptanoic acid] | –
Moderately Soluble | – | C[C@@H](N)c1ccc(C(=O)Nc2ccnc3[nH]ccc23)cc1 [Y-39983 Free Base] | –
high solubility | > 1000 | CC(C)(C)NC[C@H](O)COc1nsnc1N1CCOCC1 [timolol maleate] | –
– | – | Brc1c(NC2=NCCN2)ccc2nccnc12 [brimonidine free base] | solubility in PBS [1]: 0.36 mg/mL (≈ 1230 µM)
